Here are results for 16 molecules from patent US7714132B2, “Tetrahydropyridoindole derivatives” (Actelion Pharmaceuticals, Ltd., priority 2004, dated 2010).

SMILES strings stand for the structures.

In test [1] the target is T1, hCRTH2 receptor (Homo sapiens, UniProt Q9Y5Y4).
T1 construct: expressed in transfected cells
T1 sequence (Q9Y5Y4 1-395): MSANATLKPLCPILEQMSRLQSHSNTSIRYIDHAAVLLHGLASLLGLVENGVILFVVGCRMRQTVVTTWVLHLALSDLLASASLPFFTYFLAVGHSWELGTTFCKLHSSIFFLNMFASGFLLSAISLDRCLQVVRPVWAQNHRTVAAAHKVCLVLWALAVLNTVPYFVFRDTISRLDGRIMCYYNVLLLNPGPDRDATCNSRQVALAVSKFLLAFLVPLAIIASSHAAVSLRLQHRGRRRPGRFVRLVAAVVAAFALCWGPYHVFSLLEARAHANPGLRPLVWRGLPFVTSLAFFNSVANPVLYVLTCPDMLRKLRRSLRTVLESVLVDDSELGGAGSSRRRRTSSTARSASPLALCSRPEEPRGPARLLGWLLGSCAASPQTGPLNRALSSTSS
The experiment in a line: Intracellular calcium mobilization assay (FLIPR), antagonism of prostaglandin D2. The test is classed as cell-based. The settings on record: HEK-293 cells stably expressing hCRTH2; agonist prostaglandin D2 10 nM final; read-out: FLIPR CRTH2 IC50. As to the method:
Intracellular Calcium Mobilization Assay (FLIPR):
Cells (HEK-293), stably expressing the hCRTH2 receptor under the control of the cytomegalovirus promotor from a single insertion of the expression vector pcDNA5 (Invitrogen), are grown to confluency in DMEM (low glucose, Gibco) medium supplemented with 10% fetal calf serum (both Bioconcept, Switzerland) under standard mammalian cell culture conditions (37° C. in a humidified atmosphere of 5% CO2). Cells are detached from culture dishes using a dissociation buffer (0.02% EDTA in PBS, Gibco) for 1 min, and collected by centrifugation at 200 g at rt for 5 min in assay buffer [equal parts of Hank's BSS (HBSS, Bioconcept) and DMEM (low glucose, without phenol red, Gibco)]. After incubation for 45 min (37° C. and 5% CO2) in the presence of 1 μM Fluo-4 and 0.04% Pluronic F-127 (both Molecular Probes), 20 mM HEPES (Gibco) in assay buffer, the cells are washed with and resuspended in assay buffer, then seeded onto 3 84-welt FLIPR assay plates (Greiner) at 50,000 cells in 66 μl per well, and sedimented by centrifugation.
Stock solutions of test compounds are made up at a concentration of 10 mM in DMSO, and serially diluted in assay buffer to concentrations required for inhibition dose response curves. Prostaglandin D2 (Biomol, Plymouth Meeting, Pa.) is used as an agonist.
A FLIPR384 instrument (Molecular Devices) is operated according to the manufacturer's standard instructions, adding 4 μl of test compound dissolved at 10 mM in DMSO and diluted prior to the experiment in assay buffer to obtain the desired final concentration. 10 μl of 80 nM prostaglandin D2 (Biomol, Plymouth Meeting, Pa.) in assay buffer, supplemented with 0.8% bovine serum albumin (fatty acid content<0.02%, Sigma), is then added to obtain a final concentration of 10 nM and 0.1%, respectively. Changes in fluorescence are monitored before and after the addition of test compounds at λex=488 nm and λem=540 nm. Emission peak values above base level after prostaglandin D2 addition are exported after base line subtraction. Values are normalized to high-level control (no test compound added) after subtraction of base line value (no prostaglandin D2 added). The program XLlfit 3.0 (IDBS) is used to fit the data to a single site dose response curve of the equation (A+((B−A)/(1+((C/x)^D)))) and to calculate the IC50 values.
For orientation: Calcium assays in cells follow changes in intracellular calcium, usually with a dye or a luminescent sensor.

The target in test [2] is T1, hCRTH2 receptor. The experiment in a line: CRTH2 membranes radioligand binding assay ({3H}-PGD2). As to conditions: membranes of HEK 293 cells expressing recombinant hCRTH2; {3H}-PGD2 2.5 nM; 90 min. As to the method: Biological Assay: Preparation of CRTH2 Membranes and Radioligand Binding Assay:
Preparation of the membranes and radioligand binding assays are performed according to known procedures, e.g. Sawyer N. et al. (Br. J. Pharmacol., 2002, 137, 1163-1172). A clonal HEK 293 cell line, expressing high level of recombinant hCRTH2 receptor, is selected for the preparation of membranes. Cells are detached from culture plates in 5 ml buffer A per plate (5 mM Tris, 1 mM MgCl2x6 H2O, 0.1 mM PMSF, 0.1 mM phenanthroline) using a police rubber and transferred into centrifugation tubes and frozen at −80° C. After thawing, the cells are centrifuged at 500 g for 5 min and then resuspended in buffer A. Cells are then fragmented by homogeinization with a Polytron homogenizer for 30 s. The membrane fragments are centrifuged at 3000 g for 40 min and resuspended in membranes in buffer B (50 mM Tris, 25 mM MgCl2, 250 mM saccharose, pH 7.4) and aliquots are stored frozen.
Binding assay is performed in a total volume of 250 μl. In each well, 75 μl buffer C (50 mM Tris, 100 mM NaCl, 1 mM EDTA, 0.1% B SA (protease free), 0.01% NaN3, pH 7.4) is mixed with 50 μl {^3H}-PGD2 (at 2.5 nM (220.000 dpm per well) from Amersham, TRK734), 100 μl CRTH2 membranes to give 80 μg per well and 25 μl of test compound in buffer C containing 1% DMSO. For unspecific binding, PGD2 is added to the reaction mixture at 1 μM final concentration. This binding assay mix is incubated at it for 90 min and then filtered through a GF/C filter plate. The filter is washed three times with ice cold binding buffer. Then, 40 μl per well Microscint-40 (Packard) are added and the bound radioactivity is quantified by means of Topcourt (Packard).

Usually IC50 stands for the concentration that gives 50% inhibition. In the case of `CC(C)(C)OC(=O)N1CCc2c(c3cc(F)ccc3n2CC(=O)O)C1` [5-carboxymethyl-8-fluoro-1,3,4,5-tetrahydro-pyrido[4,3-b]indole-2-carboxylic acid tert-butyl ester], the IC50 at hCRTH2 receptor [1] turned out to be 0.022 µM.
Regarding `O=C(O)Cn1c2c(c3cc(C(F)(F)F)ccc31)CN(C(=O)c1ccccc1)CC2` [(2-benzoyl-8-trifluoromethyl-1,2,3,4-tetrahydro-pyrido[4,3-b]indol-5-yl)-acetic acid], the IC50 at hCRTH2 receptor [2] was found to be 0.001 µM.
As for `O=C(O)Cn1c2c(c3ccccc31)CN(C(=O)c1cccc3[nH]ccc13)CC2` [[2-(1H-indole-4-carbonyl)-1,2,3,4-tetrahydro-pyrido[4,3-b]indol-5-yl]-acetic acid], at hCRTH2 receptor [1], the IC50 worked out at 0.019 µM.
Take `Cc1cccc(C(=O)N2CCc3c(c4ccccc4n3CC(=O)O)C2)c1Br` [[2-(2-bromo-3-methyl-benzoyl)-1,2,3,4-tetrahydro-pyrido[4,3-b]indol-5-yl]-acetic acid]: on hCRTH2 receptor [2], the IC50 amounted to 0.014 µM.
As to `COc1cc(C(=O)N2CCc3c(c4ccccc4n3CC(=O)O)C2)cc(OC)c1OC` [[2-(3,4,5-trimethoxy-benzoyl)-1,2,3,4-tetrahydro-pyrido[4,3-b]indol-5-yl]-acetic acid], the IC50 at hCRTH2 receptor [1] came to 0.091 µM.
On to `O=C(O)Cn1c2c(c3ccccc31)CN(C(=O)c1cccc(Cl)c1)CC2` [[2-(3-chloro-benzoyl)-1,2,3,4-tetrahydro-pyrido[4,3-b]indol-5-yl]-acetic acid], for which the IC50 on hCRTH2 receptor [1] was found to be 0.174 µM; at hCRTH2 receptor [2], 0.015 µM.
Take `O=C(O)Cn1c2c(c3ccccc31)CN(C(=O)c1ccc(Br)cc1)CC2` [[2-(4-bromo-benzoyl)-1,2,3,4-tetrahydro-pyrido[4,3-b]indol-5-yl]-acetic acid]: the IC50 at hCRTH2 receptor [1] was 0.083 µM.
Turning to `CCc1ccc(-c2ccc(C(=O)N3CCc4c(c5ccccc5n4CC(=O)O)C3)cc2)cc1` [[2-(4′-ethyl-biphenyl-4-carbonyl)-1,2,3,4-tetrahydro-pyrido[4,3-b]indol-5-yl]-acetic acid], at hCRTH2 receptor [2], the IC50 was 0.007 µM.
Same read-out and setting: to `CCc1ccc(-c2ccc(C(=O)N3CCc4c(c5cc(F)ccc5n4CC(=O)O)C3)cc2)cc1` [[2-(4′-ethyl-biphenyl-4-carbonyl)-8-fluoro-1,2,3,4-tetrahydro-pyrido[4,3-b]indol-5-yl]-acetic acid] belongs 0.001 µM; to `O=C(O)Cn1c2c(c3ccccc31)CN(C(=O)c1cccc3c(Br)cccc13)CC2` [[2-(5-bromo-naphthalene-1-carbonyl)-1,2,3,4-tetrahydro-pyrido[4,3-b]indol-5-yl]-acetic acid], 0.012 µM.
`O=C(O)Cn1c2c(c3ccccc31)CN(C(=O)c1ccco1)CC2` [[2-(furan-2-carbonyl)-1,2,3,4-tetrahydro-pyrido[4,3-b]indol-5-yl]-acetic acid]: the IC50 on hCRTH2 receptor [1] amounted to 0.088 µM.
Regarding `Cc1cccc(C(=O)N2CCc3c(c4cc(Br)ccc4n3CC(=O)O)C2)c1Br` [[8-bromo-2-(2-bromo-3-methyl-benzoyl)-1,2,3,4-tetrahydro-pyrido[4,3-b]indol-5-yl]-acetic acid], on hCRTH2 receptor [1], the IC50 came out at 0.015 µM.
Regarding `O=C(O)Cn1c2c(c3cc(Br)ccc31)CN(C(=O)c1cccs1)CC2` [[8-bromo-2-(thiophene-2-carbonyl)-1,2,3,4-tetrahydro-pyrido[4,3-b]indol-5-yl]-acetic acid], the IC50 on hCRTH2 receptor [2] was 0.004 µM.
Take `COc1ccc2ccccc2c1C(=O)N1CCc2c(c3cc(Cl)ccc3n2CC(=O)O)C1` [[8-chloro-2-(2-methoxy-naphthalene-1-carbonyl)-1,2,3,4-tetrahydro-pyrido[4,3-b]indol-5-yl]-acetic acid]: the IC50 at hCRTH2 receptor [1] came out at 0.003 µM.
Same read-out and setting: to `O=C(O)Cn1c2c(c3cc(Cl)ccc31)CN(C(=O)c1cccs1)CC2` [[8-chloro-2-(thiophene-2-carbonyl)-1,2,3,4-tetrahydro-pyrido[4,3-b]indol-5-yl]-acetic acid] belongs 0.05 µM.
As to `O=C(O)Cn1c2c(c3cc(F)ccc31)CN(C(=O)Cc1cccc3ccccc13)CC2` [[8-fluoro-2-(2-naphthalen-1-yl-acetyl)-1,2,3,4-tetrahydro-pyrido[4,3-b]indol-5-yl]-acetic acid], the IC50 at hCRTH2 receptor [2] was found to be 0.003 µM.
